One assay concerns MCF-7 cells. The experiment in a line: Breast cancer cell viability assay (CellTiter-Glo, 5 days). Type of assay: cell-based. Particulars: 5 days' compound exposure; for IC50: Homo sapiens, MCF7, 120 h. An outline of the steps: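 Eleven-point semilog compound series, final 0.3-0.000003 μM, added to overnight-adhered MCF-7 cells (320/well; RPMI, 10% FBS, 20 mM HEPES) for 5 days. Viability read by CellTiter-Glo luminescence, background from medium without cells subtracted, expressed relative to untreated cells.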

The target of the next assay is T1, ER-α in MCF-7 cells (Homo sapiens, UniProt P03372).
T1 sequence (P03372 1-595): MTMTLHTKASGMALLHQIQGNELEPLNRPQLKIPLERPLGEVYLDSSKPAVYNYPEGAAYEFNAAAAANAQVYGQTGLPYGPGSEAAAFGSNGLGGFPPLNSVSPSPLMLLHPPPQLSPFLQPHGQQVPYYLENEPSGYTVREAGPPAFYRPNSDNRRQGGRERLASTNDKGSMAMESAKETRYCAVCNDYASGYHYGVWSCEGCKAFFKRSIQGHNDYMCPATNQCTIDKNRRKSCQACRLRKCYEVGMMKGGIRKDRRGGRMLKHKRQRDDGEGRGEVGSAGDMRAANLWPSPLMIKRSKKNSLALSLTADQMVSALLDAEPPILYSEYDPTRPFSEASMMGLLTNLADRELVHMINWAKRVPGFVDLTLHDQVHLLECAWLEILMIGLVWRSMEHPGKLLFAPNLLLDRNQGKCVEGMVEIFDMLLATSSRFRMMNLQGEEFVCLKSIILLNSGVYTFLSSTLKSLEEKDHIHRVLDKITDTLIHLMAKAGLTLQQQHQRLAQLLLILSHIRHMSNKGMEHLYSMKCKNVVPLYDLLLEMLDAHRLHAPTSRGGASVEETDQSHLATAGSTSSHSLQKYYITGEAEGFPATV
The experiment in a line: Breast cancer cell ER-α in cell western assay (SP1). Particulars: 4 or 24 hr post compound addition; for Emax: MCF7, SP1 antibody, read-out: ER-α In Cell Western Assay (SP1) Max Response; for DC50: SP1 antibody, read-out: ER-α In Cell Western Assay (SP1) IC50. Type of assay: cell-based. Further details: endogenous in cells; host or cells: MCF-7. A digest of the protocol:
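MCF-7, charcoal-stripped FBS/RPMI, 3200 cells/well, adhered overnight. Formalin fix, SP1 Ab o/n 4 °C, IRDye 800CW + DRAQ5; % ER = 800/700 ratio vs untreated.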

In general, IC50 refers to the point on the concentration scale where inhibition reaches its midpoint. Higher therefore signals weaker potency in that assay.

Molecules are shown by their SMILES. Some results are limits rather than exact numbers.

For the molecule `CC/C(=C(/c1ccc(/C=C/C(=O)O)cc1)c1ccc2[nH]ncc2c1)c1cccc(Oc2ccc(C)nc2)c1` [Compound 382, (E)-3-(4-((E)-1-(1H-Indazol-5-yl)-2-(3-((6-methylpyridin-3-yl)oxy)phenyl)but-1-en-1-yl)phenyl)acrylic acid], in the assay with MCF-7 cells, the “MCF7 Viability Assay Max Response” value is on record as “++ (++ = a single % value ≧ 40%)” and the IC50 is ≤ 0.1 µM. Besides, at ER-α in MCF-7 cells, the Emax is ≥ 40% and the DC50 was ≤ 0.1 µM.

Consider `CC/C(=C(/c1ccc(/C=C/C(=O)O)cc1)c1ccc2[nH]ncc2c1)c1ccc(-c2cncnc2)cc1` [Compound 383, (E)-3-(4-((E)-1-(1H-Indazol-5-yl)-2-(4-(pyrimidin-5-yl)phenyl)but-1-en-1-yl)phenyl)acrylic acid], for which, in the assay with MCF-7 cells, the “MCF7 Viability Assay Max Response” value was “++ (++ = a single % value ≧ 40%)” and the IC50 is > 0.1 µM. Also, on ER-α in MCF-7 cells, the Emax is ≥ 40% and the DC50 was > 0.1 µM.

Turning to `CC/C(=C(/c1ccc(/C=C/C(=O)O)cc1)c1ccc2[nH]ncc2c1)c1ccc(-c2cnn(C)c2)cc1` [Compound 384, (E)-3-(4-((E)-1-(1H-Indazol-5-yl)-2-(4-(1-methyl-1H-pyrazol-4-yl)phenyl)but-1-en-1-yl)phenyl)acrylic acid], in the assay with MCF-7 cells, the “MCF7 Viability Assay Max Response” value was “++ (++ = a single % value ≧ 40%)” and the IC50 was > 0.1 µM. Further, on ER-α in MCF-7 cells, the Emax is ≥ 40% and the DC50 is > 0.1 µM.

Regarding `CC/C(=C(/c1ccc(/C=C/C(=O)O)cc1)c1ccc2[nH]ncc2c1)c1ccc(-c2ccccn2)cc1` [Compound 385, (E)-3-(4-((E)-1-(1H-Indazol-5-yl)-2-(4-(pyridin-2-yl)phenyl)but-1-en-1-yl)phenyl)acrylic acid], in the assay on MCF-7 cells, the “MCF7 Viability Assay Max Response” value is on record as “++ (++ = a single % value ≧ 40%)” and the 50% inhibitory concentration (IC50) is > 0.1 µM. At ER-α in MCF-7 cells, the Emax was ≥ 40% and the DC50 was ≤ 0.1 µM.

For `CC/C(=C(/c1ccc(/C=C/C(=O)O)cc1)c1ccc2[nH]ncc2c1)c1ccc(-c2ccsc2)cc1` [Compound 386, (E)-3-(4-((E)-1-(1H-Indazol-5-yl)-2-(4-(thiophen-3-yl)phenyl)but-1-en-1-yl)phenyl)acrylic acid], in the assay on MCF-7 cells, the “MCF7 Viability Assay Max Response” value is “++ (++ = a single % value ≧ 40%)” and the IC50 is > 0.1 µM. On ER-α in MCF-7 cells, the Emax is ≥ 40% and the DC50 is ≤ 0.1 µM.

For `CC/C(=C(/c1ccc(/C=C/C(=O)O)cc1)c1ccc2[nH]ncc2c1)c1ccc(-c2nccs2)cc1` [Compound 387, (E)-3-(4-((E)-1-(1H-Indazol-5-yl)-2-(4-(thiazol-2-yl)phenyl)but-1-en-1-yl)phenyl)acrylic acid], in the assay on MCF-7 cells, the “MCF7 Viability Assay Max Response” value was “++ (++ = a single % value ≧ 40%)” and the half-inhibitory concentration (IC50) was > 0.1 µM. In addition, at ER-α in MCF-7 cells, the Emax is ≥ 40% and the DC50 was ≤ 0.1 µM.

As for `CC/C(=C(/c1ccc(/C=C/C(=O)O)cc1)c1ccc2[nH]ncc2c1)c1ccc(-c2cscn2)cc1` [Compound 388, (E)-3-(4-((E)-1-(1H-Indazol-5-yl)-2-(4-(thiazol-4-yl)phenyl)but-1-en-1-yl)phenyl)acrylic acid], in the assay with MCF-7 cells, the “MCF7 Viability Assay Max Response” value is given as “++ (++ = a single % value ≧ 40%)” and the half-maximal inhibitory concentration (IC50) was > 0.1 µM. In addition, on ER-α in MCF-7 cells, the Emax was ≥ 40% and the DC50 was ≤ 0.1 µM.

Take `CC/C(=C(/c1ccc(/C=C/C(=O)O)cc1)c1ccc2[nH]ncc2c1)c1ccc(-c2cnccn2)cc1` [Compound 389, (E)-3-(4-((E)-1-(1H-Indazol-5-yl)-2-(4-(pyrazin-2-yl)phenyl)but-1-en-1-yl)phenyl)acrylic acid]: in the assay with MCF-7 cells, the “MCF7 Viability Assay Max Response” value is listed as “++ (++ = a single % value ≧ 40%)” and the IC50 was > 0.1 µM. For the same molecule, on ER-α in MCF-7 cells, the Emax is ≥ 40% and the DC50 is ≤ 0.1 µM.

Regarding `CC/C(=C(/c1ccc(/C=C/C(=O)O)cc1)c1ccc2[nH]ncc2c1)c1cccc(-c2ccccn2)c1` [Compound 390, (E)-3-(4-((E)-1-(1H-Indazol-5-yl)-2-(3-(pyridin-2-yl)phenyl)but-1-en-1-yl)phenyl)acrylic acid], in the assay with MCF-7 cells, the “MCF7 Viability Assay Max Response” value is given as “++ (++ = a single % value ≧ 40%)” and the IC50 is ≤ 0.1 µM. Moreover, at ER-α in MCF-7 cells, the Emax is ≥ 40% and the DC50 is ≤ 0.1 µM.

For `CC/C(=C(/c1ccc(/C=C/C(=O)O)cc1)c1ccc2[nH]ncc2c1)c1cccc(-c2nccs2)c1` [Compound 391, (E)-3-(4-((E)-1-(1H-Indazol-5-yl)-2-(3-(thiazol-2-yl)phenyl)but-1-en-1-yl)phenyl)acrylic acid], in the assay on MCF-7 cells, the “MCF7 Viability Assay Max Response” value is “++ (++ = a single % value ≧ 40%)” and the IC50 is ≤ 0.1 µM. On ER-α in MCF-7 cells, the Emax is ≥ 40% and the DC50 was ≤ 0.1 µM.

On to `CC/C(=C(/c1ccc(/C=C/C(=O)O)cc1)c1ccc2[nH]ncc2c1)c1cccc(-c2cscn2)c1` [Compound 392, (E)-3-(4-((E)-1-(1H-Indazol-5-yl)-2-(3-(thiazol-4-yl)phenyl)but-1-en-1-yl)phenyl)acrylic acid], for which, in the assay on MCF-7 cells, the “MCF7 Viability Assay Max Response” value is “++ (++ = a single % value ≧ 40%)” and the IC50 is ≤ 0.1 µM. Further, at ER-α in MCF-7 cells, the Emax was ≥ 40% and the DC50 is ≤ 0.1 µM.

With `CC/C(=C(/c1ccc(/C=C/C(=O)O)cc1)c1ccc2[nH]ncc2c1)c1cccc(-c2cccnc2)c1` [Compound 393, (E)-3-(4-((E)-1-(1H-Indazol-5-yl)-2-(3-(pyridin-3-yl)phenyl)but-1-en-1-yl)phenyl)acrylic acid], in the assay with MCF-7 cells, the “MCF7 Viability Assay Max Response” value is reported as “++ (++ = a single % value ≧ 40%)” and the half-inhibitory concentration (IC50) is ≤ 0.1 µM. For the same molecule, on ER-α in MCF-7 cells, the Emax is ≥ 40% and the DC50 was ≤ 0.1 µM.

In the case of `CC/C(=C(/c1ccc(/C=C/C(=O)O)cc1)c1ccc2[nH]ncc2c1)c1cccc(-c2ccncc2)c1` [Compound 394, (E)-3-(4-((E)-1-(1H-Indazol-5-yl)-2-(3-(pyridin-4-yl)phenyl)but-1-en-1-yl)phenyl)acrylic acid], in the assay with MCF-7 cells, the “MCF7 Viability Assay Max Response” value is reported as “++ (++ = a single % value ≧ 40%)” and the IC50 is > 0.1 µM. Moreover, at ER-α in MCF-7 cells, the Emax was ≥ 40% and the DC50 was ≤ 0.1 µM.

For the molecule `CC/C(=C(/c1ccc(/C=C/C(=O)O)cc1)c1ccc2[nH]ncc2c1)c1ccc(-c2cnsc2)cc1` [Compound 395, (E)-3-(4-((E)-1-(1H-Indazol-5-yl)-2-(4-(isothiazol-4-yl)phenyl)but-1-en-1-yl)phenyl)acrylic acid], in the assay on MCF-7 cells, the “MCF7 Viability Assay Max Response” value is listed as “++ (++ = a single % value ≧ 40%)” and the IC50 is > 0.1 µM. For the same molecule, at ER-α in MCF-7 cells, the Emax was ≥ 40% and the DC50 is ≤ 0.1 µM.

With `CC/C(=C(/c1ccc(/C=C/C(=O)O)cc1)c1ccc2[nH]ncc2c1)c1ccc(N(C)c2ccccc2)cc1` [Compound 396, (E)-3-(4-((E)-1-(1H-Indazol-5-yl)-2-(4-(methyl(phenyl)amino)phenyl)but-1-en-1-yl)phenyl)acrylic acid & (E)-3-(4-((Z)-1-(1H-indazol-5-yl)-2-(4-(methyl(phenyl)amino)phenyl)but-1-en-1-yl)phenyl)acrylic acid (1:1 Mixture)], in the assay with MCF-7 cells, the “MCF7 Viability Assay Max Response” value is listed as “++ (++ = a single % value ≧ 40%)” and the concentration for half-maximal inhibition (IC50) is > 0.1 µM. Also, on ER-α in MCF-7 cells, the Emax was ≥ 40% and the DC50 was > 0.1 µM.

Regarding `CC/C(=C(/c1ccc(/C=C/C(=O)O)cc1)c1ccc2[nH]ncc2c1)c1ccc(Nc2ccccc2)cc1` [Compound 397, (E)-3-(4-((E)-1-(1H-Indazol-5-yl)-2-(4-(phenylamino)phenyl)but-1-en-1-yl)phenyl)acrylic acid], in the assay on MCF-7 cells, the “MCF7 Viability Assay Max Response” value is given as “++ (++ = a single % value ≧ 40%)” and the half-inhibitory concentration (IC50) was ≤ 0.1 µM. At ER-α in MCF-7 cells, the Emax is ≥ 40% and the DC50 was ≤ 0.1 µM.

For `CC/C(=C(/c1ccc(/C=C/C(=O)O)cc1)c1ccc2nn(C(F)F)cc2c1)c1ccc(F)cc1Cl` [Compound 402, (E)-3-(4-((E)-2-(2-Chloro-4-fluorophenyl)-1-(2-(difluoromethyl)-2H-indazol-5-yl)but-1-en-1-yl)phenyl)acrylic acid], in the assay with MCF-7 cells, the “MCF7 Viability Assay Max Response” value is reported as “++ (++ = a single % value ≧ 40%)” and the concentration for half-maximal inhibition (IC50) is ≤ 0.1 µM. Further, at ER-α in MCF-7 cells, the Emax is ≥ 40% and the DC50 is ≤ 0.1 µM.

With `CC/C(=C(/c1ccc(/C=C/C(=O)O)cc1)c1ccc2c(cnn2C(C)=O)c1)c1ccc(F)cc1Cl` [Compound 403, (E)-3-(4-((E)-1-(1-Acetyl-1H-indazol-5-yl)-2-(2-chloro-4-fluorophenyl)but-1-en-1-yl)phenyl)acrylic acid], in the assay with MCF-7 cells, the “MCF7 Viability Assay Max Response” value is “++ (++ = a single % value ≧ 40%)” and the IC50 was ≤ 0.1 µM. In addition, at ER-α in MCF-7 cells, the Emax is ≥ 40% and the DC50 is ≤ 0.1 µM.

(Values after US9399646B2 (Genentech, Inc., priority 2010, dated 2016).)
